From ChEMBL document CHEMBL1146992, “Identification of potent phenyl imidazoles as opioid receptor agonists” (Bioorg Med Chem Lett, 2006)

Assays:
Mu-type opioid receptor [1] = target: Mu-type opioid receptor (Cavia porcellus, UniProt P97266); assay: Activity against mu opioid receptor by stimulation of [35S]GTP-gamma-S binding in CHO-hgamma cells; type: functional, cell-based
[2] = target: Delta-type opioid receptor (Rattus norvegicus, UniProt P33533); assay: Displacement of [3H]DPDPE from delta opioid receptor in rat brain; type: tissue-based
[3] = target: Delta-type opioid receptor (Mus musculus, UniProt P32300); assay: Activity against delta opioid receptor by stimulation of [35S]GTP-gamma-S binding in CHO-hgamma cells; type: functional, cell-based
Mu-type opioid receptor [4] = target: Mu-type opioid receptor (Rattus norvegicus, UniProt P33535); assay: Displacement of [3H]DAMGO from mu opioid receptor in rat brain; type: tissue-based
[5] = target: Opioid receptors; mu & delta (Rattus norvegicus) (UniProt P33533+P33535); assay: Selectivity for delta opioid receptor over mu opioid receptor; type: protein assay
Sequence of Opioid receptors; mu & delta (Rattus norvegicus) (P33533 whole entry, looked up): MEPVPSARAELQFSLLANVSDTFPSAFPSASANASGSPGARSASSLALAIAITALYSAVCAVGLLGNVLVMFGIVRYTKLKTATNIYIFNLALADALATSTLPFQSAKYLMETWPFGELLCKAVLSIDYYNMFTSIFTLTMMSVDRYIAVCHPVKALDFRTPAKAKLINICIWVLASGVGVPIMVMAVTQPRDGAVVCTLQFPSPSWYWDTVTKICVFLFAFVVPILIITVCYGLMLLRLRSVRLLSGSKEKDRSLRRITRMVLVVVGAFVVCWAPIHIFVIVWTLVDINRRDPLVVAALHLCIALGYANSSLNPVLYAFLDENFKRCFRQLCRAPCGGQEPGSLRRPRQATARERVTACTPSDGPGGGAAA
Sequence of Opioid receptors; mu & delta (Rattus norvegicus) (P33535 whole entry, looked up): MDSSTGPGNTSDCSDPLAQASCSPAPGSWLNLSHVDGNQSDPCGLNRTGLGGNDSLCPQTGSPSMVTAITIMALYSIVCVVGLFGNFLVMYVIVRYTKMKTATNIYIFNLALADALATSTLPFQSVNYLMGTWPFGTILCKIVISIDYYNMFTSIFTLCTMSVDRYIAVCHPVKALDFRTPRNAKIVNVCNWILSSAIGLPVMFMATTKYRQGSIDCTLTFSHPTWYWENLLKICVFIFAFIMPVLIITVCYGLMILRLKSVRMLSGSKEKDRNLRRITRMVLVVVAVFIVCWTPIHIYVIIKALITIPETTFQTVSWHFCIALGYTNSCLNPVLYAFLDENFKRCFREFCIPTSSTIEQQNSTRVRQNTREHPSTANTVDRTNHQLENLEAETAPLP

Sequence of Delta-type opioid receptor (Mus musculus, UniProt P32300) (P32300 whole entry): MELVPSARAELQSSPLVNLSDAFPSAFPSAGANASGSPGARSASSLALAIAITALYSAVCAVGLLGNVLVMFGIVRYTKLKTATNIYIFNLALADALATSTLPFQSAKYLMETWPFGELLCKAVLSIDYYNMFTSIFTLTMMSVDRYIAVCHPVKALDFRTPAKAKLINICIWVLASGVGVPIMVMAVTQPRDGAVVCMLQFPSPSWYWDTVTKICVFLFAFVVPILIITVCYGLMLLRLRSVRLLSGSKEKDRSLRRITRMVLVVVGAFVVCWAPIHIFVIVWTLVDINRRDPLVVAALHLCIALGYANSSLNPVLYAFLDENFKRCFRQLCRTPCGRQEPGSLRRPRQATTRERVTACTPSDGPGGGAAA
Sequence of Delta-type opioid receptor (Rattus norvegicus, UniProt P33533) (P33533 whole entry): as the sequence (P33533 whole entry, looked up) above
Sequence of Mu-type opioid receptor (Rattus norvegicus, UniProt P33535) (P33535 whole entry): as the sequence (P33535 whole entry, looked up) above
Sequence of Mu-type opioid receptor (Cavia porcellus, UniProt P97266) (P97266 whole entry): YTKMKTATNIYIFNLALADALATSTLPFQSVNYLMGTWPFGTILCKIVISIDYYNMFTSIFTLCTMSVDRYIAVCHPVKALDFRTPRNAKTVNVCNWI

SMILES | EC50 (Mu-type opioid receptor [1]) [nM] | Ki [2] [nM] | EC50 [3] [nM] | Ki (Mu-type opioid receptor [4]) [nM] | Ratio Ki [5]
Cc1cc(C(N)=O)cc(C)c1C[C@H](N)C(=O)N1CCCC[C@H]1c1nc(-c2ccccc2)c[nH]1 | 9 | 14 | 135 | 0.13 | 
N[C@@H](Cc1ccc(Cl)cc1)C(=O)N1Cc2ccccc2C[C@H]1c1nc(-c2ccccc2)c[nH]1 |  |  |  |  | 4.6
Cc1[nH]c([C@@H]2Cc3ccccc3CN2C(=O)[C@@H](N)Cc2ccccc2)nc1-c1ccccc1 |  | 236 |  | 1830 | 8
CC(=O)Nc1ccc(C[C@H](N)C(=O)N2Cc3ccccc3C[C@H]2c2nc(C)c(-c3ccccc3)[nH]2)cc1 |  |  |  |  | 6
Cc1cc(O)cc(C)c1C[C@H](N)C(=O)N1CCCC[C@H]1c1nc(-c2ccccc2)c[nH]1 | 2 | 1.9 | 37 | 0.05 | 0.03
N[C@@H](Cc1ccccc1)C(=O)N1Cc2ccccc2C[C@H]1c1nc(-c2ccccc2)c[nH]1 |  | 266 |  | 443 | 1.7
N[C@@H](Cc1ccc(O)cc1)C(=O)N1Cc2ccccc2C[C@H]1c1nc(-c2ccccc2)c[nH]1 |  |  | 19 |  | 63
NC(=O)c1ccc(C[C@H](N)C(=O)N2Cc3ccccc3C[C@H]2c2nc(-c3ccccc3)c[nH]2)cc1 | 155 | 1.3 | 3 | 23 | 18.4
Cc1cc(C(N)=O)cc(C)c1C[C@H](N)C(=O)N1Cc2ccccc2C[C@H]1c1nc(-c2ccccc2)c[nH]1 | 161 |  | 22 | 1.4 | 
Cc1cc(O)cc(C)c1C[C@H](N)C(=O)N1Cc2ccccc2C[C@H]1c1nc(C)c(-c2ccccc2)[nH]1 |  |  |  |  | 3.2
Cc1cc(O)cc(C)c1C[C@H](N)C(=O)N1Cc2ccccc2C[C@H]1c1nc(-c2ccccc2)c(C)[nH]1 |  | 0.1 |  | 0.3 | 
COc1ccc(C[C@H](N)C(=O)N2Cc3ccccc3C[C@H]2c2nc(C)c(-c3ccccc3)[nH]2)cc1 |  |  |  |  | 6.4
Cc1[nH]c([C@@H]2Cc3ccccc3CN2C(=O)[C@@H](N)Cc2ccc(N)cc2)nc1-c1ccccc1 |  |  |  |  | 9
N[C@@H](Cc1ccc(CO)cc1)C(=O)N1Cc2ccccc2C[C@H]1c1nc(-c2ccccc2)c[nH]1 |  | 466 |  | 912 | 2
Cc1[nH]c([C@@H]2Cc3ccccc3CN2C(=O)[C@@H](N)Cc2ccc(O)cc2)nc1-c1ccccc1 |  |  |  |  | 75
Cc1cc(O)cc(C)c1C[C@H](N)C(=O)N1Cc2ccccc2C[C@H]1c1nc(-c2ccccc2)c[nH]1 | 27 | 0.1 | 0.9 | 0.3 | 3.2
NC(=O)c1ccc(C[C@H](N)C(=O)N2CCCC[C@H]2c2nc(-c3ccccc3)c[nH]2)cc1 | 100 |  | 730 | 1.2 | 0.02
N[C@@H](Cc1ccccc1)C(=O)N1CCCC[C@H]1c1nc(-c2ccccc2)c[nH]1 |  | 1130 |  | 18 | 0.02
N[C@@H](Cc1ccc(S(N)(=O)=O)cc1)C(=O)N1Cc2ccccc2C[C@H]1c1nc(-c2ccccc2)c[nH]1 |  |  |  |  | 3.4
N[C@@H](Cc1ccc(C(=O)O)cc1)C(=O)N1Cc2ccccc2C[C@H]1c1nc(-c2ccccc2)c[nH]1 |  | 5200 |  | 5800 | 1.1
CC(=O)c1ccc(C[C@H](N)C(=O)N2Cc3ccccc3C[C@H]2c2nc(-c3ccccc3)c[nH]2)cc1 |  | 30 |  |  | 14
Cc1[nH]c([C@@H]2Cc3ccccc3CN2C(=O)[C@@H](N)Cc2ccc(C#N)cc2)nc1-c1ccccc1 |  | 752 |  | 1340 | 1.8
Cc1[nH]c([C@@H]2Cc3ccccc3CN2C(=O)[C@@H](N)Cc2ccc(F)cc2)nc1-c1ccccc1 |  |  |  |  | 19
CS(=O)(=O)Nc1ccc(C[C@H](N)C(=O)N2Cc3ccccc3C[C@H]2c2nc(-c3ccccc3)c[nH]2)cc1 |  | 342 |  | 356 | 1
Cc1[nH]c([C@@H]2CCCCN2C(=O)[C@@H](N)Cc2ccc(O)cc2)nc1-c1ccccc1 | 142 |  | 500 |  | 0.1
N[C@@H](Cc1ccc(O)cc1)C(=O)N1CCCC[C@H]1c1nc(-c2ccccc2)c[nH]1 |  | 198 |  | 3.8 | 0.02
